The values below come from patent publication US20260274814A1, “THIENYL COMPOUNDS FOR THE TREATMENT OF A CENTRAL NERVOUS SYSTEM DISEASE OR DISORDER” (Coreterra Therapeutics, Inc., priority 2023, published 2026).

The subject of this assay is mice. Nature of the assay: Neuropharmacological Assay (SmartCube): automated behavioral signature of compound-treated mice compared with a database of reference drug classes. The format is in vivo. To be noted: for minimal effective dose: Mus musculus, ip; for minimal effective dose / MED (minimal effective dose) / MED: i.p., that dose is shown; for AD / AG / AN / AP / AX / CE / HL / MS / PS / SH / UK: 3.0 mg/kg i.p., 15 min before test. An outline of the steps: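 Mice dosed i.p. 15 min before SmartCube testing, with compound in N-methyl-2-pyrrolidone/polyethylene glycol/propylene glycol. Video-captured behaviour is compared with a reference-drug signature database to give per-class probabilities, reported at 3.0 mg/kg. MED, from doses usually 0.3–10 mg/kg, is the lowest dose giving ≥45% total activity.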

The mark [1] stands for this setting: dose having 45% or more total activity in SmartCube, if only one dose was tested, read-out: MED (minimal effective dose).
Setting [2] is: probability that activity matches this class of agents.
Where [3] appears, read: probability that activity matches this class of agents, 3 mg/kg.
Where [4] appears, read: dose having 45% or more total activity in SmartCube, if only one dose was tested, hydrochloride.
Where [5] appears, read: probability that activity matches this class of agents, hydrochloride, 3 mg/kg.
Setting [6] is: SmartCube class probability, hydrochloride, 3 mg/kg.
Setting [7] is: minimal effective dose: dose having 45% or more total activity in SmartCube, if only one dose tested, read-out: MED.

Each structure is given as a SMILES string. Structures can show the parent of a compound that is named as a salt. Where two headings read alike, the source gives them in different places.

In the case of `CNC1CCc2scc(Cl)c2C1` (stereo not drawn) [Compound 90, 3-chloro-N-methyl-4,5,6,7-tetrahydrobenzothiophen-5-amine hydrochloride], under setting [1], the minimal effective dose is 3 mg/kg. Further, under setting [2], the AD result is reported as “ND (^ <4%)”, the AG result was “ND (^ <4%)”, the AN result is given as “ND (^ <4%)” and the AP entry is “+++ (≥49%)”. For the same compound, under setting [2], the AX entry is “ND (^ <4%)”, the CE result is recorded as “ND (^ <4%)”, the HL entry was “ND (^ <4%)” and the MS entry is recorded as “ND (^ <4%)”. Also, under setting [2], the PS result is “ND (^ <4%)”, the SH result was “ND (^ <4%)” and the UK result is “ND (^ <4%)”.

For `CNC1CCc2cc(C(F)(F)F)sc2C1` (single isomer, unassigned) [Compound 38, N-methyl-2-(trifluoromethyl)-4,5,6,7-tetrahydrobenzothiophen-6-amine], the minimal effective dose under setting [1] was found to be 3 mg/kg. Further, under setting [2], the AG entry is reported as “ND (^ <4%)”, the AN entry is on record as “ND (^ <4%)”, the AX entry is “ND (^ <4%)” and the CE result is recorded as “ND (^ <4%)”. Moreover, under setting [2], the HL result is “ND (^ <4%)”, the MS result was “ND (^ <4%)”, the PS entry was “ND (^ <4%)” and the SH result is on record as “ND (^ <4%)”. In addition, under setting [3], the AD entry is listed as “ND (^ <4%)”, the AP result is listed as “ND (^ <4%)” and the UK entry is given as “++ (≥24%)”.

With `CNC1CCc2c(csc2C(F)(F)F)C1` (single isomer, unassigned) [Compound 64, N-methyl-1-(trifluoromethyl)-4,5,6,7-tetrahydro-2-benzothiophen-5-amine hydrochloride], the “MED (minimal effective dose)” value under setting [4] was 10 mpk. For the same compound, under setting [2], the AD result was “+ (≥4%)”, the AG entry is “ND (^ <4%)”, the AN entry is reported as “ND (^ <4%)” and the AP entry is listed as “ND (^ <4%)”. Moreover, under setting [2], the CE result is “ND (^ <4%)”, the HL entry is on record as “ND (^ <4%)”, the PS result is “ND (^ <4%)” and the SH result is reported as “ND (^ <4%)”. In addition, under setting [5], the AX result is “ND (^ <4%)”, the MS entry is “ND (^ <4%)” and the UK result is “++ (≥24%)”.

With `CC1(N)CCc2c(C(F)(F)F)csc2C1.Cl` (single isomer, unassigned) [Compound 242, 6-methyl-3-(trifluoromethyl)-5,7-dihydro-4H-benzothiophen-6-amine hydrochloride], where the note is “SmartCube class probability”, the AG result was “ND (^ <4%)”, the AN entry is recorded as “ND (^ <4%)”, the AP entry was “ND (^ <4%)” and the AX entry is “ND (^ <4%)”. Also, where the note is “SmartCube class probability”, the CE result was “ND (^ <4%)”, the HL entry is reported as “ND (^ <4%)”, the MS entry was “ND (^ <4%)” and the PS entry was “ND (^ <4%)”. Moreover, the SH entry (SmartCube class probability) is given as “ND (^ <4%)”. Also, under setting [6], the AD result was “+++ (≥49%)” and the UK result is given as “ND (^ <4%)”. Further, the MED (minimal effective dose: dose having 45% or more total activity in SmartCube, if only one dose tested) amounted to 3 mpk.

Turning to `NC1CCc2sc(Cl)cc2C1` (stereo not drawn) [Compound 216, 2-chloro-4,5,6,7-tetrahydrobenzothiophen-5-amine hydrochloride], the minimal effective dose under setting [7] was above 3 mg/kg. Besides, for the setting “SmartCube class probability”, the AD result was “ND (^ <4%)”, the AG entry was “ND (^ <4%)”, the AN result is “ND (^ <4%)” and the AP entry is “ND (^ <4%)”. Further, under “SmartCube class probability”, the AX result is on record as “++ (≥24%)”, the CE entry is given as “ND (^ <4%)”, the HL result is recorded as “ND (^ <4%)” and the MS entry is on record as “ND (^ <4%)”. Also, under “SmartCube class probability”, the PS result is given as “ND (^ <4%)”, the SH result was “ND (^ <4%)” and the UK result is reported as “+ (≥4%)”.

Turning to `NC1CCc2scc(Cl)c2C1` (stereo not drawn) [Compound 187, 3-chloro-4,5,6,7-tetrahydrobenzothiophen-5-amine hydrochloride], the minimal effective dose under setting [7] came out at 3 mg/kg. In addition, for the setting “SmartCube class probability”, the AD result was “ND (^ <4%)”, the AG result is reported as “ND (^ <4%)”, the AN entry was “ND (^ <4%)” and the AP entry was “++ (≥24%)”. In addition, for the setting “SmartCube class probability”, the AX result is given as “ND (^ <4%)”, the CE result was “ND (^ <4%)”, the HL result was “ND (^ <4%)” and the MS result was “ND (^ <4%)”. For the setting “SmartCube class probability”, the PS entry is given as “ND (^ <4%)”, the SH entry is “ND (^ <4%)” and the UK entry is given as “++ (≥24%)”.

Regarding `CNC1CCc2cscc2C1.Cl` (single isomer, unassigned) [Compound 13, N-methyl-4,5,6,7-tetrahydro-2-benzothiophen-5-amine hydrochloride], the minimal effective dose under setting [1] came out at 0.3 mg/kg. Under setting [2], the AG result is recorded as “ND (^ <4%)”, the AN result is “ND (^ <4%)”, the AX entry is recorded as “+ (≥4%)” and the HL entry is given as “ND (^ <4%)”. Moreover, under setting [2], the MS entry is given as “ND (^ <4%)”, the PS entry is on record as “ND (^ <4%)”, the SH result is listed as “ND (^ <4%)” and the UK entry is “ND (^ <4%)”. Besides, under setting [5], the AD entry was “ND (^ <4%)”, the AP entry is given as “+++ (≥49%)” and the CE result is “+ (≥4%)”.

For the compound `CNC1COc2csc(C)c2C1` (stereo not drawn) [Compound 88, N, 5-dimethyl-3,4-dihydro-2H-thieno[3,4-b]pyran-3-amine hydrochloride], the minimal effective dose under setting [1] stood at 3 mg/kg. Under setting [2], the AD result is listed as “ND (^ <4%)”, the AG result is “ND (^ <4%)”, the AN result was “ND (^ <4%)” and the AP result is listed as “++++ (≥74%)”. Under setting [2], the AX entry is “ND (^ <4%)”, the CE entry was “ND (^ <4%)”, the HL result is on record as “ND (^ <4%)” and the MS entry is recorded as “ND (^ <4%)”. Besides, under setting [2], the PS entry was “ND (^ <4%)”, the SH entry is on record as “ND (^ <4%)” and the UK entry is “ND (^ <4%)”.

Take `CNC1CCc2csc(Cl)c2C1` (single isomer, unassigned) [Compound 56, 3-chloro-N-methyl-4,5,6,7-tetrahydro-2-benzothiophen-5-amine hydrochloride]: the “MED (minimal effective dose)” value (dose having 45% or more total activity in SmartCube, if only one dose was tested) was 1.0 mpk. For the same compound, under setting [2], the AG entry is on record as “ND (^ <4%)”, the AP entry is reported as “++ (≥24%)”, the CE entry was “ND (^ <4%)” and the HL result is on record as “ND (^ <4%)”. Under setting [2], the MS result is reported as “ND (^ <4%)”, the PS result is recorded as “ND (^ <4%)”, the SH result is “ND (^ <4%)” and the UK entry is reported as “ND (^ <4%)”. Under setting [5], the AD entry is on record as “ND (^ <4%)”, the AN entry is reported as “+ (≥4%)” and the AX result is “++ (≥24%)”.

For the compound `CCNC1CCc2cscc2C1` (single isomer, unassigned) [Compound 172, N-ethyl-4,5,6,7-tetrahydro-2-benzothiophen-5-amine hydrochloride], for the setting “SmartCube class probability”, the AD result is recorded as “ND (^ <4%)”, the AG entry is “ND (^ <4%)”, the AN entry was “ND (^ <4%)” and the CE result is “ND (^ <4%)”. Where the note is “SmartCube class probability”, the HL result was “ND (^ <4%)”, the MS entry is recorded as “ND (^ <4%)”, the PS entry is listed as “ND (^ <4%)” and the SH result is reported as “ND (^ <4%)”. Further, the UK result (SmartCube class probability) is “ND (^ <4%)”. Besides, under setting [6], the AP result is on record as “ND (^ <4%)” and the AX result is given as “++++ (≥74%)”. This compound also yielded an MED (minimal effective dose: dose having 45% or more total activity in SmartCube, if only one dose tested, hydrochloride) of 1 mpk.

As to `CNC1CCc2c(csc2C(F)(F)F)C1` (single isomer, unassigned) [Compound 63, N-methyl-1-(trifluoromethyl)-4,5,6,7-tetrahydro-2-benzothiophen-5-amine hydrochloride], the “MED (minimal effective dose)” value under setting [4] is given as 1.0 mpk. Also, under setting [2], the AD result is listed as “+ (≥4%)”, the AG result is “ND (^ <4%)”, the AN result is reported as “ND (^ <4%)” and the AP entry is “ND (^ <4%)”. Besides, under setting [2], the CE result was “ND (^ <4%)”, the HL result is recorded as “ND (^ <4%)”, the PS entry is “ND (^ <4%)” and the SH entry was “ND (^ <4%)”. Further, under setting [5], the AX entry is reported as “+++ (≥49%)”, the MS entry is “+ (≥4%)” and the UK entry was “ND (^ <4%)”.

For `CNC1CCc2csc(C)c2C1.Cl` (single isomer, unassigned) [Compound 40, N, 3-dimethyl-4,5,6,7-tetrahydro-2-benzothiophen-5-amine hydrochloride], the minimal effective dose under setting [1] turned out to be 1 mg/kg. Under setting [2], the AG result is “ND (^ <4%)”, the AN result is on record as “ND (^ <4%)”, the AP result was “++ (≥24%)” and the CE result is given as “ND (^ <4%)”. Under setting [2], the HL entry is “ND (^ <4%)”, the MS result is recorded as “ND (^ <4%)”, the PS entry was “ND (^ <4%)” and the SH entry is “ND (^ <4%)”. Moreover, the UK result under setting [2] is recorded as “ND (^ <4%)”. Also, under setting [5], the AD entry is reported as “ND (^ <4%)” and the AX entry is given as “+++ (≥49%)”.
